According to patent publication US20180368393A1, “PRE- AND POST-STORAGE STRESS RESPONSE CONDITIONING” (CPSI HOLDINGS LLC, priority 2017, published 2018):
“Also recorded” adds a separate entry of the source. Where a SMILES comes first, the peptide text is derived from it. The star is where a group is joined. Cbz = O=C(OCc1ccccc1)*; CH2F = FC*

How the values were obtained:
[1] = system: human endothelial cells; test: Human endothelial cell monolayer survival and repopulation following cryopreservation (Calcein-AM assay); type: cell-based; conditions: for post-thaw viability: P/P conditioning, U10 and U5G10 CP solutions vs matched non-treated samples; for day 1 survival increase over non-treated samples: U10G10
Experimental: A series of cryopreservation experiments was conducted on human endothelial and smooth muscle cell suspensions and monolayers to assess the performance of four (4) commercially available cryopreservation solutions: DP6, VS55, VS83, and M22, as well as nine (9) additional solutions: […] Eurocollins (EC) solution was included as a negative control, i.e., no cryoprotective agent (CPA) control, while media+10% DMSO ([…]) is a typical solution (10% DMSO) used in standard controlled rate cryopreservation protocols known to the skilled individual. Unisol is representative of the class of intracellular-like or intracellular-type solutions/media, whereas EC solution and culture media are representative of the class of extracellular-like or extracellular-type solutions/media. Other studies presented herein provide additional examples of intracellular- and extracellular-like solutions; other intracellular- and extracellular-like solutions are similarly useful and are known to those of skill in the art. FIG. 1 illustrates the results of an assessment of human endothelial cell survival following preservation. Monolayers of endothelial cells were frozen or vitrified and thawed in the indicated solutions (control, Uni, […], DP6, VS55, VS83, and […]). Following thawing, samples were diluted in culture media, placed into culture and assessed for viability at 1 day (24 hours) post-thaw and following seven (7) days of recovery using the Calcein-AM assay. […] The Uni and U10 conditions provided outcomes exceeding that of the VS55, VS83 and […] conditions. Therefore, subsequent studies (see, e.g., FIG. 2) focused on Unisol-based solutions with various CPAs and concentrations, in addition to the DP6 commercial cryopreservation solution. […] Monolayers of endothelial cells were frozen or vitrified and thawed in the indicated solutions. […] For pre-freeze (PF), post-warming (PW) and pre/post (P/P) conditioning studies, molecular modulation agents targeting inhibition of apoptosis (Caspase inhibitor IV, 8, 9 and a combination of Caspases 8 and 9), reduction of free-radical damage (resveratrol and NAC), and activation of the unfolded protein response (salubrinal) were employed as supplements in the media 1 hour prior to freezing (pre-freeze condition) or for 1 day following thawing and CPA removal from frozen samples (post-warming condition). Based on outcomes in the studies in Example 1, PF, PW and P/P conditioning were examined in Examples 2-3 using a series of Unisol-based solutions (Uni, U5, U10, U20, UG10, U5G10 and U10G10). […] Patent Application Publication No. US 2016/0097583 A1 (Ser. No. 14/876,087), which is incorporated by reference in its entirety as though fully set forth herein. The freeze and thaw process was slightly modified relative to the disclosure of U.S. Patent Application Publication No. US 2016/0097583 A1 by the addition of a 0.090 inch aluminum plate inserted into the bottom of the 96 well plate to aid in increasing cooling and heating uniformity throughout the plate, thereby reducing the well-to-well variability within the samples. The device was used to thaw the samples, which were frozen in situ in monolayers in standard 96-well tissue culture plates. […] A mitochondrial-mediated apoptotic inhibitor (Caspase 9) and a membrane-mediated apoptotic inhibitor (Caspase 8) were investigated to evaluate the involvement and impact of modulation of various apoptotic induction pathways. Additionally, a pan-Caspase inhibitor (Cas IV) was also investigated to assess the impact of global pathway modulation. As with the viability studies, cell survival and repopulation were assessed using Calcein-AM assays and analyzed using fluorescent microscopy (Zeiss). Survival was determined at 24 hours post-thaw to allow for the manifestation of any delayed onset cell death pathways to be executed. Further, cell recovery was included to evaluate the long term potency and repopulation potential of the various samples. […]

[2] = system: endothelial and smooth muscle cells; test: Summary of Examples 2-3: post-thaw survival of endothelial and smooth muscle cells (Calcein-AM assay); type: cell-based, human
Experimental: For pre-freeze (PF), post-warming (PW) and pre/post (P/P) conditioning studies, molecular modulation agents targeting inhibition of apoptosis (Caspase inhibitor IV, 8, 9 and a combination of Caspases 8 and 9), reduction of free-radical damage (resveratrol and NAC), and activation of the unfolded protein response (salubrinal) were employed as supplements in the media 1 hour prior to freezing (pre-freeze condition) or for 1 day following thawing and CPA removal from frozen samples (post-warming condition).
(§1) The device was used to thaw the samples, which were frozen in situ in monolayers in standard 96-well tissue culture plates. Samples were thawed from less than −170° C. to about 4° C. in the 96-well plate format in about 5 mins in a dry clean (“sterile”) environment.
The P/P regime was followed by PW using Caspase 8 inhibition or NAC inhibition.

[3] = system: human smooth muscle cells; test: Human smooth muscle cell monolayer survival and repopulation following cryopreservation (Calcein-AM assay); type: cell-based
Experimental: as §1
The study described in example 3.1 focuses on the collection of cell survival data and the impact of post-thaw conditioning on human smooth muscle cells (SMCs). Specific activities included application of the high throughput monolayer sample cryopreservation protocol and collection of data (survival and cell death) from samples frozen using 6 unique cryopreservation solutions (U5, U10, U20, U5G10, U10G10, DP6) and 6 unique modulators (resveratrol, salubrinal, caspase inhibitors (IV, 8, 9) and NAC). Survival was determined at 24 hours post-thaw to allow for the manifestation of any delayed onset cell death pathways to be executed. Further, cell recovery was included to evaluate the long term potency and repopulation potential of the various samples.
A series of experiments was conducted to evaluate the performance of several solutions (U5, U10, U20, U5G10, U10G10 and DP6) as well as the impact of pre-freeze (PF) and post-warming (PW) conditioning with the apoptotic inhibitors Caspase 8, Caspase 9 and Caspase IV inhibitors. Cell samples were processed using the monolayer CP protocol and analyzed following 24 hours to 7 days post thaw for survival and recovery. These experiments were conducted to evaluate the impact of molecular modulators (inhibitors) during pre-freeze or post-thaw recovery on cell survival when added to the media 1 hour prior to or 24 hour following cryopreservation. […] To this end, samples were probed with Calcein-AM, incubated for 30 mins in the dark and then imaged using a Zeiss Axiovert 200 fluorescence microscope and Axiovision software. Images were taken at 24 hours to 7 days post-thaw to allow for assessment of solution and post-thaw conditioning agent performance.
As in previous experiments, the 24 hour time point was used for initial survival assessment, as this time point allows for the manifestation of molecular based cell stress-induced death. This provides a more accurate measure of survival than 0 or 1 hour post-thaw assessment, as is typically used. The 3 day time point was selected to assess re-population potential of any surviving cells as an indicator of long term potency.
For smooth muscle cell pre-freeze (PF) conditioning studies, 1 hour prior to CP addition, culture media was decanted and 100 μL of fresh media supplemented with caspase 8, 9, or IV was added to each respective well. Samples were then incubated at 37° C. for 1 hour, followed by media removal and addition of 100 μL of CP solution to samples followed by cryopreservation as described above. Following preservation, samples were thawed, diluted, and placed into culture. Following 24 hours recovery, cell viability was assessed.
For smooth muscle cell post-warming (PW) conditioning studies, following thawing and cryopreservation, CP solution was removed or diluted with culture media supplemented with caspase 8, 9, or IV. FIG. 18 illustrates the impact of apoptotic inhibition post-freeze conditioning on human smooth muscle cell survival 1 day following cryopreservation with and without reduced CPA.
For P/P conditioning studies, 1 hour prior to CP addition, culture media was decanted and 100 μL of fresh media supplement with caspase 8, 9, or IV was added to each respective well.

[4] = system: human hematopoietic stem cells (hHSC); test: Human hematopoietic stem cell survival following cryopreservation (Calcein-AM assay); type: cell-based; conditions: cryopreserved in DMSO 10%
Experimental: The studies described in example 4 focus on the collection of cell survival data and the impact of post-thaw conditioning on human stem cells (hHSCs). Specific activities included standard cryopreservation protocol and collection of data (survival and cell death) from samples frozen using 6 unique cryopreservation solutions (Media, M5, M10, Unisol, U5 and U10) and 4 unique modulators (resveratrol (OSI), salubrinal (UPRI), caspase inhibitor (AI) and NAC). Survival was determined at 24 hours post-thaw to allow for the manifestation of any delayed onset cell death pathways to be executed. […]
A series of experiments was conducted to evaluate the performance of several solutions (media, M5, M10, Unisol, U5, and U10) as well as the impact of post-warming (PW) conditioning with the molecular modulators. Cell samples were processed using a standard controlled rate cooling suspension protocol and analyzed following 24 hours to 7 days post thaw for survival and recovery. […] To this end, samples were probed with Calcein-AM, incubated for 30 mins in the dark and then imaged using a Zeiss Axiovert 200 fluorescence microscope and Axiovision software. […]
For hHSC post-warming (PW) conditioning studies, following thawing each sample was diluted with culture media supplemented with the respective molecular modulator added to the dilution media. Samples were incubated in culture for 24 hours, then assessed. […]

[5] = PF and PW caspase inhibitor conditioning, U10G10 solution
[6] = PF conditioning, U10, U20, U5G10 and U10G10
[7] = P/P conditioning, vs non-conditioned samples

CC[C@H](C)[C@H](NC(=O)OCc1ccccc1)C(=O)N[C@@H](CCC(=O)OC)C(=O)N[C@H](C(=O)N[C@@H](CC(=O)OC)C(=O)CF)[C@@H](C)O [Caspase 8 inhibitor] (Cbz-IE(OMe)TD(OMe)-CH2F)
day 1 cell survival / post-thaw viability ([1]; P/P caspase inhibitor conditioning, Unisol+CPA samples vs non-treated matched samples): improvement in cell survival
cell repopulation / day 3 recovery ([1]; P/P caspase inhibitor conditioning, Unisol+CPA solutions and DP6): most beneficial; also recorded: marked improvement in all solutions in day 3 recovery
cell recovery and repopulation (overall) [1, 5]: improvement in cell recovery and repopulation
recovery at 3 days post-thaw ([1]; PF caspase inhibitor conditioning, Unisol+CPA conditions): improvement in recovery
day 3 recovery ([1]; PW caspase inhibitor conditioning, U10, U20 and U5G10 vs non-treated): marked improvement in day 3 recovery
cell recovery 3 days post-thaw ([1]; PW caspase inhibitor conditioning, Unisol+CPA conditions): improvement in cell recovery
day 1 cell survival ([1]; post-warming (PW) caspase inhibitor conditioning 24 hours, Unisol+CPA solutions, vs non-treated matched samples): overall increase in cell survival
day 1 cell survival ([1]; post-warming (PW) caspase inhibitor conditioning 24 hours, Unisol+CPA solutions, vs non-treated matched samples, listed as Caspase 8): slight improvement in cell survival
cell survival ([1]; pre/post (P/P) caspase inhibitor conditioning, U10G10 solution, day 1): ~90%
day 1 post-thaw cell survival and cell recovery ([2]; PF, PW and P/P conditioning, Unisol based solutions): improved
increase in cell survival over non-treated samples ([2]; PW conditioning): ~50%
increase in survival over non-treated samples ([2]; U10G10, P/P conditioning, day 1): > 2 fold
increase over non-treated U10G10 samples ([3]; P/P caspase inhibitor conditioning, U10G10, day 1 survival): ~50%
day 1 survival, % of controls ([3]; P/P caspase inhibitor conditioning, U10G10, listed as Caspase 8): ~60%
day 1 survival, % of controls ([3]; P/P caspase inhibitor conditioning, U10G10, listed as caspase 8): about 70%
day 1 survival, % of controls ([3]; P/P caspase inhibitor conditioning, U10G10, listed as caspase 8 inhibitor): ~70%
cell repopulation / day 3 recovery ([3]; P/P caspase inhibitor conditioning, Unisol+CPA conditions and DP6): marked improvement in day 3 recovery
smooth muscle cell recovery and repopulation (overall) [3, 5]: improvement in smooth muscle cell recovery and repopulation
recovery at 3 days post-thaw ([3]; PW caspase inhibitor conditioning): complete recovery of the samples to pre-freeze controls
day 1 cell survival ([3]; PW caspase inhibitor conditioning, Unisol+CPA solutions): slight increase in cell survival

C[S+](C)[O-] [DMSO, dimethyl sulfoxide]
cell loss rates [4]: greater than 50%

Oc1ccc(C=Cc2cc(O)cc(O)c2)cc1 [resveratrol]
post-thaw viability [1]: increase in post-thaw viability
day 1 survival increase over non-treated samples ([1]; PF conditioning 1 hour): ~2 fold
day 1 cell survival [1, 6]: Improvement
day 1 survival increase over non-treated samples ([1]; PW conditioning 24 hours): ~2 fold
day 1 cell survival [3, 7]: slight to no improvement in cell survival

O=C(/C=C/c1ccccc1)NC(NC(=S)Nc1cccc2cccnc12)C(Cl)(Cl)Cl (stereo not drawn) [salubrinal]
post-thaw viability [1]: increase in post-thaw viability
day 1 cell survival [1, 6]: Improvement
day 1 cell survival [3, 7]: slight to no improvement in cell survival
day 1 cell survival ([3]; PW conditioning, vs non-treated matched samples): minimal benefit
